Experimental data taken from PMC12030627, “Radioiodinated Bicyclic RGD Peptide Derivatives for Enhanced Tumor Accumulation” (Pharmaceuticals, 2025).
Where two headings read alike, the source gives them in different places.

Assay: Biodistribution in A549 and U-87 MG co-implantation mice
Format: in vivo, BALB/c nu-nu mice
Conditions: male, BALB/c nu-nu, mouse, iv, 37 kBq, total radioactivity, U-87 MG and A549 co-implanted mice, mean ± SD, n = 4
Description: Animal experiments were performed in compliance with institutional animal care regulations, with the study protocol approved by the Experimental Animal Committee of Osaka Medical and Pharmaceutical University (Approval Numbers: 21–76, 22–76, and 23–76). Four-week-old male BALB/c nu-nu mice (Japan SLC, Shizuoka, Japan) were housed under a 12 h light/12 h dark cycle with free access to food and water. Tumor-bearing mice were established by suspending U-87 MG cells (2 × 10^6 cells/mouse) in PBS(–) and subcutaneously injecting 100 μL of the suspension into the right hind leg. For co-implantation models, A549 cells (2 × 10^6 cells/mouse) were suspended in PBS(–) and inoculated (100 μL) into the left hind leg of the same mice already inoculated with U-87 MG cells. Mice with tumor size approximately 10 mm in diameter, 4–5 weeks after inoculation, were used for biodistribution studies. Animals in which either tumor was not viable were excluded from the experiment.
U-87 MG-bearing mice (n = 42, 8–9 weeks old; 22–27 g) were randomly assigned into groups and administered [^125I]bcRGDpal or [^125I]bcRGDiba via intravenous injection (37 kBq in 100 μL of PBS containing 0.1% Tween 80 (PBS-T80)). At 5 min, 30 min, 1 h, 2 h, 6 h, 12 h, or 24 h post-injection, the mice were euthanized (n = 3 per time point). The heart, kidneys, liver, brain, pancreas, spleen, lung, small intestine, large intestine, muscle, skin, stomach, bone, and tumors were excised. Each organ’s weight and radioactivity were measured by a NaI well-type scintillation counter, and the % ID/g was calculated. To investigate the correlation between integrin expression and radioactivity accumulation, biodistribution at 2 h after administration of [^125I]bcRGDpal or [^125I]bcRGDiba was assessed in A549 and U-87 MG co-implantation mice (n = 5) using the same procedure. Additionally, co-implantation mice were injected with [^125I]bcRGDdimer (37 kBq/100 μL PBS-T80) and euthanized at 30 min, 2 h, and 4 h post-injection (n = 4 per time point), and % ID/g values were calculated as described above. The minimum sample size needed for the biodistribution study in U-87 MG-bearing mice was calculated using G Power software version 3.1.9.7. The calculation was based on a two-tailed test, with an effect size of 3.9, a significance level (α) of 0.05, and a statistical power (1 − β) of 0.8. […] The minimum required sample size for the biodistribution study in A549 and U-87 MG co-implantation mice was also calculated to be four animals per group (effect size = 2.5, α = 0.05, 1 − β = 0.8). To guarantee objective results, the experiment was carried out in a blinded manner. Specifically, drug administration and radioactivity measurements were conducted by different investigators to eliminate potential bias.

Structure (SMILES): N=C(N)NCCC[C@@H]1NC(=O)[C@H]2CSCc3cc(cc(c3)CSC[C@H](C(N)=O)NC(=O)[C@H](CC(=O)O)NC(=O)CNC1=O)CSC[C@H](NC(=O)CNC(=O)[C@H](CO)NC(=O)c1ccc(NC(=O)CNC(=O)[C@H](CO)NC(=O)[C@@H]3CCCN3C(=O)[C@@H]3CCCN3C(=O)[C@@H]3CCCN3C(=O)CCc3cn(CC[C@H](NC(=O)CCNC(=O)c4cccc(I)c4)C(=O)N4CCC[C@H]4C(=O)N4CCC[C@H]4C(=O)N4CCC[C@H]4C(=O)N[C@@H](CO)C(=O)NCC(=O)Nc4ccc(C(=O)N[C@@H](CO)C(=O)NCC(=O)N[C@H]5CSCc6cc7cc(c6)CSC[C@@H](NC(=O)[C@H](CCC(N)=O)NC(=O)[C@@H]6CCCN6C(=O)[C@H](Cc6c[nH]cn6)NC5=O)C(=O)N[C@@H](CCCNC(=N)N)C(=O)NCC(=O)N[C@@H](CC(=O)O)C(=O)N[C@@H](C(N)=O)CSC7)cc4)nn3)cc1)C(=O)N[C@@H](Cc1c[nH]cn1)C(=O)N1CCC[C@H]1C(=O)N[C@@H](CCC(N)=O)C(=O)N2 [[^125I]bcRGDdimer]
- tissue uptake at 0.5 h (A549 tumor, 30 min after i.v. administration, read-out: Radioactivity in A549 tumor): 1.7 ± 0.6 %ID/g
- tissue uptake at 2 h (A549 tumor, 2 h after i.v. administration, read-out: Radioactivity in A549 tumor): 0.8 ± 0.2 %ID/g
- tissue uptake at 4 h (A549 tumor, 4 h after i.v. administration, read-out: Radioactivity in A549 tumor): 0.4 ± 0.1 %ID/g
- tissue uptake at 0.5 h (U-87 MG tumor, 30 min after i.v. administration, read-out: Radioactivity in U-87 MG tumor): 7.5 ± 0.8 %ID/g
- tissue uptake at 2 h (U-87 MG tumor, 2 h after i.v. administration, read-out: Radioactivity in U-87 MG tumor): 4.2 ± 1.1 %ID/g
- tissue uptake at 4 h (U-87 MG tumor, 4 h after i.v. administration, read-out: Radioactivity in U-87 MG tumor): 2.9 ± 0.4 %ID/g
- tissue uptake at 2 h (blood, 2 h after i.v. administration, read-out: Radioactivity in blood): 0.3 %ID/g
- tissue uptake at 0.5 h (bone, 30 min after i.v. administration, read-out: Radioactivity in bone): 1.5 ± 0.3 %ID/g
- tissue uptake at 2 h (bone, 2 h after i.v. administration, read-out: Radioactivity in bone): 0.9 ± 0.3 %ID/g
- tissue uptake at 4 h (bone, 4 h after i.v. administration, read-out: Radioactivity in bone): 0.4 %ID/g
- tissue uptake at 0.5 h (brain, 30 min after i.v. administration, read-out: Radioactivity in brain): 0.1 %ID/g
- tissue uptake at 0.5 h (heart, 30 min after i.v. administration, read-out: Radioactivity in heart): 0.6 ± 0.1 %ID/g
- tissue uptake at 2 h (heart, 2 h after i.v. administration, read-out: Radioactivity in heart): 0.2 %ID/g
- tissue uptake at 4 h (heart, 4 h after i.v. administration, read-out: Radioactivity in heart): 0.1 %ID/g
- tissue uptake at 0.5 h (kidneys, 30 min after i.v. administration, read-out: Radioactivity in kidneys): 10.9 ± 2.6 %ID/g
- tissue uptake at 2 h (kidneys, 2 h after i.v. administration, read-out: Radioactivity in kidneys): 2 ± 0.2 %ID/g
- tissue uptake at 4 h (kidneys, 4 h after i.v. administration, read-out: Radioactivity in kidneys): 0.9 ± 0.2 %ID/g
- tissue uptake at 0.5 h (large intestine, 30 min after i.v. administration, read-out: Radioactivity in large intestine): 0.4 ± 0.2 %ID/g
- tissue uptake at 2 h (large intestine, 2 h after i.v. administration, read-out: Radioactivity in large intestine): 5.5 ± 1 %ID/g
- tissue uptake at 4 h (large intestine, 4 h after i.v. administration, read-out: Radioactivity in large intestine): 5.5 ± 1.4 %ID/g
- tissue uptake at 0.5 h (liver, 30 min after i.v. administration, read-out: Radioactivity in liver): 0.9 ± 0.1 %ID/g
- tissue uptake at 2 h (liver, 2 h after i.v. administration, read-out: Radioactivity in liver): 0.5 ± 0.1 %ID/g
- tissue uptake at 4 h (liver, 4 h after i.v. administration, read-out: Radioactivity in liver): 0.3 ± 0.1 %ID/g
- tissue uptake at 0.5 h (lung, 30 min after i.v. administration, read-out: Radioactivity in lung): 2.9 ± 0.5 %ID/g
- tissue uptake at 2 h (lung, 2 h after i.v. administration, read-out: Radioactivity in lung): 1.2 ± 0.3 %ID/g
- tissue uptake at 4 h (lung, 4 h after i.v. administration, read-out: Radioactivity in lung): 0.4 ± 0.1 %ID/g
- tissue uptake at 0.5 h (muscle, 30 min after i.v. administration, read-out: Radioactivity in muscle): 0.7 ± 0.1 %ID/g
- tissue uptake at 2 h (muscle, 2 h after i.v. administration, read-out: Radioactivity in muscle): 0.2 %ID/g
- tissue uptake at 4 h (muscle, 4 h after i.v. administration, read-out: Radioactivity in muscle): 0.1 %ID/g
- tissue uptake at 0.5 h (pancreas, 30 min after i.v. administration, read-out: Radioactivity in pancreas): 0.5 ± 0.1 %ID/g
- tissue uptake at 2 h (pancreas, 2 h after i.v. administration, read-out: Radioactivity in pancreas): 0.2 ± 0.1 %ID/g
- tissue uptake at 4 h (pancreas, 4 h after i.v. administration, read-out: Radioactivity in pancreas): 0.1 %ID/g
- tissue uptake at 0.5 h (small intestine, 30 min after i.v. administration, read-out: Radioactivity in small intestine): 3.6 ± 0.6 %ID/g
- tissue uptake at 2 h (small intestine, 2 h after i.v. administration, read-out: Radioactivity in small intestine): 2.3 ± 1 %ID/g
- tissue uptake at 4 h (small intestine, 4 h after i.v. administration, read-out: Radioactivity in small intestine): 1.6 ± 0.4 %ID/g
- tissue uptake at 0.5 h (spleen, 30 min after i.v. administration, read-out: Radioactivity in spleen): 0.7 ± 0.2 %ID/g
- tissue uptake at 2 h (spleen, 2 h after i.v. administration, read-out: Radioactivity in spleen): 0.3 ± 0.1 %ID/g
- tissue uptake at 4 h (spleen, 4 h after i.v. administration, read-out: Radioactivity in spleen): 0.2 %ID/g
- tissue uptake dose at 0.5 h (stomach, 30 min after i.v. administration): 0.6 ± 0.5 %ID
- tissue uptake dose at 2 h (stomach, 2 h after i.v. administration): 0.2 %ID
- tissue uptake dose at 4 h (stomach, 4 h after i.v. administration): 0.3 ± 0.3 %ID
- tissue uptake at 0.5 h (whole blood, 30 min after i.v. administration, read-out: Radioactivity in blood): 1.1 ± 0.1 %ID/g
- tissue uptake at 2 h (whole blood, 2 h after i.v. administration, read-out: Radioactivity in blood): 0.3 ± 0.1 %ID/g
- tissue uptake at 4 h (whole blood, 4 h after i.v. administration, read-out: Radioactivity in blood): 0.2 ± 0.1 %ID/g
